Data from patent US11793861B2, “PTH prodrugs” (ASCENDIS PHARMA BONE DISEASES A/S, priority 2016, dated 2023).

Assays:
[1] = test system: thyroparathyroidectomised (TPTx) rats; assay: Pharmacodynamic actions in thyroparathyroidectomised (TPTx) rats, 28-days daily subcutaneous injections; format: in vivo, SD rats
Protocol: Quantitative measurements of serum calcium (sCa), urinary calcium and serum phosporous (sP) were performed on a Roche-Hitachi P800 modular biochemistry instrument.
Rats subjected to thyroparathyroidectomy (TPTx) by blunt dissection are unable to produce parathyroid hormone, PTH, the major regulator of calcium homeostasis. […] Additionally, one group of sham operated rats (n=9) representing normophysiological background control were also given vehicle. Serum calcium (sCa) and phosporous (sP) levels in the animals were measured pre- and post-dose on days 1, 6, 12 and 27. Moreover, bone turnover markers (P1NP and CTx) were measured and bone quality assessed by ex vivo pQCT.

[2] = cited from earlier work

With “PTH(1-84): Natpara®, PTH(1-84), approved by the FDA for hypoparathyroidism; the current standard of care (SEQ ID NO:1)” the “trabecular BMD compared to both control groups” value ([1]; 28 days treatment) was “significant increase”, the “effect on serum phosphorous (sP)” value ([1]; TPTx rats, daily sc) was “minimal decrease” and the “effect on serum calcium (sCa)” value ([1]; TPTx rats, daily sc, 18 at […], PTH(1-84) at 7.3 nmol/kg/d) was “did not lead to increase in sCa”. The “serum calcium (sCa) at day 12” value ([1]; TPTx rats, 18 at […], PTH(1-84) at 7.3 nmol/kg/d, sc) was 8.1 mg/dL, the “trabecular and cortical BMD in vertebrae” value ([1]; following 28 days of treatment) was “anabolic effect” and the “PTH Cmax” value ([2]; currently approved doses) was 0.3 ng/mL. The “control of urinary calcium excretion” value ([2]; daily injections, FDA review) was “failed to provide adequate control” and the “incidence of hypercalcemia and hypocalcemia compared to placebo” value ([2]; in vivo) was “did not improve”.
